The values below come from patent US12673041B2, “4-aminobut-2-enamide derivatives and salt thereof” (TAIHO PHARMACEUTICAL CO., LTD., priority 2019, dated 2026).

SMILES strings stand for the structures.

Test [1] has as its target Gppcp-bound recombinant K-Ras4B G12C mutant protein (amino acids 1-169, C51S/C80L/C118S) (Homo sapiens, UniProt P01116, C118S/C51S/C80L/G12C). Put plainly: KRASG12C binding assay (LC-MS compound binding rate). Particulars: test compound final concentration 0.5 μM, 25° C., 1 hour. The procedure:
As test compounds for the KRASG12C binding assay, the compounds obtained in the “Preparation of Compounds” section were used. Sample solutions each containing a test compound were prepared in the form of a 10 mM DMSO solution.
Gppcp-bound recombinant K-Ras4B G12C mutant protein (amino acids 1-169, C51S/C80L/C118S, SEQ ID NO:1) was diluted with a buffer (1×TBS, 0.1 mM TCEP, 0.25 mM MgCl2, 50 μM Gppcp) to prepare a 50 nM protein solution. K-Ras4B is the major splicing variant of K-Ras. Amino acid sequence of residues 1 to 150 including the compounds' binding region of K-Ras4B is exactly same as that of K-Ras4A, the other splicing variant (Oncotarget. 2016 Jul. 19; 7(29): 46717-46733). A sample solution containing 10 mM test compound was diluted ten-fold with DMSO to make a 1 mM sample solution, and then diluted twenty-fold with DMSO to make a 50 μM sample solution. 1 μL of a 50 μM sample solution was added to 100 μL of a 50 nM protein solution to adjust the final concentration of a test compound to be 0.5 μM in the mixture. The mixtures were stored in an incubator at 25° C. for 1 hour, and 10 μL of a 1×TBS solution containing 2% formic acid was added to stop the reaction, followed by LC-MS measurement. LC-MS measurement was performed using Xevo G2-S Q-Tof manufactured by Waters, and reverse-phase chromatography was performed with a desalting column. A mass spectrum of positive ions was obtained by electrospray. For a mass spectrum, a spectrum of polyvalent ions was collectively converted to a molecular weight by using OpenLynx software by the MaxEnt technique, and a compound binding rate was calculated from the ratio of the signal intensity of a peak that corresponds to the molecular weight of the protein to the signal intensity of a peak that corresponds to the molecular weight of the protein conjugated with the compound.
The binding assay of the test compounds was conducted at a final concentration of 0.5 μM. A binding rate of 80% or more is rated “A”, a binding rate of 60% or more and less than 80% is rated “B”, a binding rate of 40% or more and less than 60% is rated “C”, a binding rate of 20% or more and less than 40% is rated “D”, and a binding rate of less than 20% is rated “E”. N.D.=not determined. Binding rate % is the ratio of KRAS signal intensity at the molecular weight of one molecule adduct to the sum of all the KRAS signal intensity (unbound form and adducts) in mass spectrum.
Thus, binding rate 100% means that only the one molecule adduct was observed without any unbound KRAS.

For test [2], the target named is T1, GMPPNP-bound KRAS G12C protein and cRAF RAS-binding domain (cRAF-RBD) (Homo sapiens, UniProt P01116, G12C).
T1 construct: made in house; host or cells: E. coli
Put plainly: Inhibitory activity on interaction between KRAS G12C and cRAF (Alpha technology). It counts as biochemical. Particulars: GMPPNP-bound KRAS G12C incubated with compound at 25° C. for 1 hour, then cRAF-RBD, Alpha signal; read-out: IC50. The method, then: Interaction between recombinant K-Ras4B G12C mutant protein (amino acids 1-169, SEQ ID NO:2) and cRAF RAS-binding domain (cRAF-RBD, amino acids 50-132, Jena Biosciences GmbH) was measured using Alpha technology (PerkinElmer Inc.).
Recombinant KRAS G12C protein with an N-terminal His-tag was expressed in E. coli and purified by affinity chromatography. To prepare GTP-bound form and GDP-bound form of KRAS G12C protein, 50 μM KRAS G12C protein was incubated with 1 mM GMPPNP (Guanosine-5′-[(β,γ)-imido]triphosphate, Tetralithium salt) (Jena Bioscience GmbH) and 1 mM GDP, respectively, in a loading buffer (20 mM Tris-HCl (pH 7.5), 50 mM NaCl, 1 mM DTT and 2.5 mM EDTA) for 1 hour on ice. After the incubation, MgCl2 was added to a final concentration of 10 mM, followed by incubation at room temperature for 30 minutes. The mixture was allowed to pass through a NAP-5 column to remove free nucleotides and purified, and the resultant nucleotide-bound KRAS G12C protein was used for compound evaluation.
For the measurement of the inhibitory activity of compounds on interaction between KRAS G12C and cRAF-RBD, GMPPNP-bound KRAS G12C protein was incubated with various concentrations of compound in a reaction buffer (20 mM Tris-HCl (pH 7.5), 100 mM NaCl, 1 mM MgCl2, 1 mM TCEP, 0.1% Tween 20) at 25° C. for 1 hour. After the incubation, recombinant cRAF-RBD and Alpha detection reagents were added and incubated at room temperature for 1.5 hours for binding. Interaction 5 of KRAS G12C and cRAF-RBD was monitored by measuring Alpha signal. Inhibition % was calculated using the signal from the reaction without test compound (DMSO control) as 0% inhibition and the signal from the reaction using GDP-bound KRAS G12C in place of GMPPNP-bound KRAS G12C as 100% inhibition. IC50 values were calculated from dose titration curve using curve fitting by XLfit software (IDBS).

By IC50 is commonly meant the midpoint of a concentration-inhibition curve. As to `CO[C@H]1CC[C@H](NC/C=C/C(=O)Nc2ccc(C(=O)c3ccc4c(-c5c(Cl)cc6c(ncn6C)c5Cl)cccn34)cc2C#N)CC1` (single isomer, unassigned) [Example 63, (E)-N-(2-cyano-4-(8-(4,6-dichloro-1-methyl-1H-benzo[d]imidazol-5-yl)indolizine-3-carbonyl)phenyl)-4-(((1r,4r)-4-methoxycyclohexyl)amino)but-2-enamide], the binding rate entry in test [1] is recorded as “A (A binding rate of 80% or more is rated “A”)”. Further, in test [2], the IC50 was 210 nM.

Take `O=C(/C=C/CN[C@H]1CC[C@H](O)CC1)Nc1ccc(C(=O)Nc2cccc(Br)c2)cn1` [Comparative example 1, N-(3-bromophenyl)-6-((E)-4-(((1r,4r)-4-hydroxycyclohexyl)amino)but-2-enamido)nicotinamide, reference compound]: the binding rate entry in test [1] is given as “E (a binding rate of less than 20% is rated “E”)”. The IC50 in test [2] came out at 20000 nM.

With `C=CC(=O)Nc1ccc(C(=O)Nc2cccc(-c3cc4nc(COC)n(C)c4cc3C(F)(F)F)c2)cc1C#N` [Comparative example 2, reference compound], in test [1], the binding rate result is reported as “E (a binding rate of less than 20% is rated “E”)”. In addition, the IC50 in test [2] is 15000 nM.

`CCc1nc2cc(-c3cccc(NC(=O)c4ccc(NC(=O)/C=C/CN(C)C(C)(C)C)c(C#N)c4)c3)c(C(F)(F)F)cc2n1C` [Example 2, (E)-4-(4-(tert-butyl(methyl)amino)but-2-enamido)-3-cyano-N-(3-(2-ethyl-1-methyl-6-(trifluoromethyl)-1H-benzo[d]imidazol-5-yl)phenyl)benzamide]: in test [1], the binding rate entry is “D (a binding rate of 20% or more and less than 40% is rated “D”)”. For the same molecule, in test [2], the IC50 stood at 880 nM.

`CCc1nc2cc(-c3cccc4c3CCN4C(=O)c3ccc(NC(=O)/C=C/CN[C@H]4CC[C@H](OC)CC4)c(C#N)c3)c(C(F)(F)F)cc2n1C` [Example 10, (E)-N-(2-cyano-4-(4-(2-ethyl-1-methyl-6-(trifluoromethyl)-1H-benzo[d]imidazol-5-yl)indoline-1-carbonyl)phenyl)-4-(((1r,4r)-4-methoxycyclohexyl)amino)but-2-enamide]: the binding rate result in test [1] was “A (A binding rate of 80% or more is rated “A”)”. The IC50 in test [2] turned out to be 190 nM.

As to `COc1ccc(Cl)c(-c2cccc(NC(=O)c3ccc(NC(=O)/C=C/CNC4CCN(S(C)(=O)=O)CC4)c(C#N)c3)c2)c1OC` [Example 11, (E)-N-(6′-chloro-2′,3′-dimethoxy-[1,1′-biphenyl]-3-yl)-3-cyano-4-(4-((1-(methylsulfonyl)piperidin-4-yl)amino)but-2-enamido)benzamide], the binding rate result in test [1] was “B (a binding rate of 60% or more and less than 80% is rated “B”)”. The IC50 in test [2] was determined as 630 nM.

In the case of `CCN(CC)[C@H]1CC[C@H](NC/C=C/C(=O)Nc2ccc(C(=O)Nc3cccc(-c4c(Cl)ccc5c4cnn5C)c3)cc2C#N)CC1` [Example 12, N-(3-(5-chloro-1-methyl-1H-indazol-4-yl)phenyl)-3-cyano-4-((E)-4-(((1r,4r)-4-(diethylamino)cyclohexyl)amino)but-2-enamido)benzamide], the binding rate result in test [1] is “B (a binding rate of 60% or more and less than 80% is rated “B”)”. In addition, in test [2], the IC50 was 270 nM.

For the molecule `CCN(CC)[C@H]1CC[C@H](NC/C=C/C(=O)Nc2ccc(C(=O)Nc3cccc(-c4cc5nc(C)n(C)c5cc4Cl)c3)cc2F)CC1` [Example 13, N-(3-(6-chloro-1,2-dimethyl-1H-benzo[d]imidazol-5-yl)phenyl)-4-((E)-4-(((1r,4r)-4-(diethylamino)cyclohexyl)amino)but-2-enamido)-3-fluorobenzamide], the binding rate result in test [1] was “B (a binding rate of 60% or more and less than 80% is rated “B”)”. Further, the IC50 in test [2] stood at 410 nM.

On to `O=C(/C=C/CN[C@H]1CC[C@H](O)CC1)Nc1ccc(C(=O)Nc2cccc(-c3cc4nc[nH]c4cc3Cl)c2)cn1` [Example 14, N-(3-(6-chloro-1H-benzo[d]imidazol-5-yl)phenyl)-6-((E)-4-(((1r,4r)-4-hydroxycyclohexyl)amino)but-2-enamido)nicotinamide], for which the binding rate result in test [1] is “D (a binding rate of 20% or more and less than 40% is rated “D”)”. Further, in test [2], the IC50 was 830 nM.

`CCc1nc2c(Cl)c(-c3cccc(NC(=O)c4ccc(NC(=O)/C=C/CN[C@H]5CC[C@H](OC)CC5)c(C#N)c4)c3)c(C(F)(F)F)cc2n1C` [Example 15, N-(3-(4-chloro-2-ethyl-1-methyl-6-(trifluoromethyl)-1H-benzo[d]imidazol-5-yl)phenyl)-3-cyano-4-((E)-4-(((1r,4r)-4-methoxycyclohexyl)amino)but-2-enamido)benzamide]: the binding rate result in test [1] is “A (A binding rate of 80% or more is rated “A”)”. For the same molecule, in test [2], the IC50 came to 200 nM.

On to `CO[C@H]1CC[C@H](NC/C=C/C(=O)Nc2ccc(C(=O)Nc3cccc(-c4cc5ncsc5cc4C)c3)cc2C#N)CC1` [Example 16, 3-cyano-4-((E)-4-(((1r,4r)-4-methoxycyclohexyl)amino)but-2-enamido)-N-(3-(6-methylbenzo[d]thiazol-5-yl)phenyl)benzamide], for which the binding rate result in test [1] was “C (a binding rate of 40% or more and less than 60% is rated “C”)”. Moreover, the IC50 in test [2] was found to be 700 nM.

As for `CS(=O)(=O)N1CCC(NC/C=C/C(=O)Nc2ccc(C(=O)Nc3cccc(-c4cc5nccn5cc4Cl)c3)cc2C#N)CC1` [Example 17, (E)-N-(3-(6-chloroimidazo[1,2-a]pyridin-7-yl)phenyl)-3-cyano-4-(4-((1-(methylsulfonyl)piperidin-4-yl)amino)but-2-enamido)benzamide], the binding rate result in test [1] was “B (a binding rate of 60% or more and less than 80% is rated “B”)”. Further, the IC50 in test [2] came out at 75 nM.

Take `CO[C@H]1CC[C@H](NC/C=C/C(=O)Nc2ccc(C(=O)Nc3cc(F)c(F)c(-c4cc5ncn(C)c5cc4C)c3)cc2C#N)CC1` [Example 18, 3-cyano-N-(3-(1,6-dimethyl-1H-benzo[d]imidazol-5-yl)-4,5-difluorophenyl)-4-((E)-4-(((1r,4r)-4-methoxycyclohexyl)amino)but-2-enamido)benzamide]: the binding rate entry in test [1] is on record as “A (A binding rate of 80% or more is rated “A”)”. For the same molecule, in test [2], the IC50 stood at 140 nM.

With `CCN(CC)[C@H]1CC[C@H](NC/C=C/C(=O)Nc2ccc(C(=O)Nc3cccc(-c4cc5ncn(C)c5cc4Cl)c3)cc2C#N)CC1` [Example 19, N-(3-(6-chloro-1-methyl-1H-benzo[d]imidazol-5-yl)phenyl)-3-cyano-4-((E)-4-(((1r,4r)-4-(diethylamino)cyclohexyl)amino)but-2-enamido)benzamide], in test [1], the binding rate result is “A (A binding rate of 80% or more is rated “A”)”. Besides, the IC50 in test [2] amounted to 34 nM.
